≈ marks a conversion by molar mass, not a printed value. Like-named read-outs stand apart in the source and are kept apart here.
How the values were obtained:
K562MRP = experiment: MTT test on K562MRP, homoharringtonine-resistant subline of K562; assay type: cell-based; settings: K562MRP subline resistant to 50 ng/mL homoharringtonine, same method as K562
Method: (§1) Structural analogues of harringtonines described in this invention were tested on K562 cell line, derived from chronic myeloid leukemia cells in blastic transformation (bcr-abl positive). The cell line was purchased from ATCC (American Tissue Culture Collection) and grown in RPMI medium supplemented with 10% heat-inactivated fetal calf serum, 2 mmol/L glutamine, […] penicillin and […] streptomycin. All tested products were initially dissolved in […] (pH=2), supplemented with ultrasound treatment during 1 h. Working concentrations were made by dilution in culture medium (pH around 7). Cells in exponential growth phase were placed into 96-microwell plates in concentration 3×10^4/mL (total volume 200 μL/well) and incubated with drugs for 72 h at 37° C. in 5% CO2 humidified atmosphere. Following incubation, 2 μL of MTT solution (Sigma, St. Louis, Mo.) was added to each well. During the following 6 h of incubation at 37° C., the purple formazan product was formed by conversion of the yellow MTT salt in the mitochondria of the viable cells. The resulting precipitate was dissolved in DMSO and the amount of converted MTT was quantified in an ELISA reader (MR 5000, Dynatech). Each product was tested in triplicate (3×8 wells). Every test contained at least one plate with HHT as control, added in the same concentration as the tested products.

K562 cell line = experiment: MTT test of structural analogues of harringtonines on K562 cell line; assay type: cell-based
Method: as §1

[1] = K562 cell line, 72 h incubation, MTT

Row | SMILES | IC50 (K562 cell line; Homo sapiens, K562, 72 h) | further results
1 | CC=CC=CCOC(=O)C[C@](O)(CCCC(C)(C)O)C(=O)O[C@@H]1C(OC)=C[C@]23CCCN2CCc2cc4c(cc2[C@H]13)OCO4 [Example 43, (2′R)-4′-(hexa-2,4-dienyl)-4′-demethyl-homoharringtonine] | – | IC50 (K562MRP): 16 ng/mL (≈ 0.0262 µM); IC50 (K562 cell line; [1]): 0.0035 µg/mL (≈ 0.00572 µM)
2 | COC1=C[C@@]23CCCN2CCc2cc4c(cc2[C@@H]3C1OC(=O)[C@@](O)(CCCC(C)(C)O)CC(=O)OCc1ccco1)OCO4 (stereo partly drawn) [Example 83, (2′R)-4′-furfuryl-4′-demethyl-homoharringtonine] | 0.003 µg/mL (≈ 0.0049 µM) | –
3 | COC(=O)C[C@](O)(CCC(C)(C)F)C(=O)OC1C(OC)=C[C@@]23CCCN2CCc2cc4c(cc2[C@H]13)OCO4 (stereo partly drawn) [Example 59, (2′R)-3″-Fluoro-3″-deoxy-harringtonine] | 0.0135 µg/mL (≈ 0.0253 µM) | –
4 | CC=CCOC(=O)C[C@](O)(CCCC(C)(C)O)C(=O)O[C@@H]1C(OC)=C[C@]23CCCN2CCc2cc4c(cc2[C@H]13)OCO4 [Example 37, (2′R)-4′-(but-2-enyl)-4′-demethyl-homoharringtonine] | – | IC50 (K562 cell line; [1]): 0.0125 µg/mL (≈ 0.0213 µM)
5 | COC1=C[C@@]23CCCN2CCc2cc4c(cc2[C@@H]3C1OC(=O)[C@@](O)(CCCC(C)(C)O)CC(=O)OCc1ccc(C)cc1)OCO4 (stereo partly drawn) [Example 72, (2′R)-4′-p-methylbenzyl-4′-demethyl-homoharringtonine] | 0.006 µg/mL (≈ 0.00944 µM) | –
6 | COC1=C[C@@]23CCCN2CCc2cc4c(cc2[C@@H]3C1OC(=O)[C@@](O)(CCCC(C)(C)O)CC(=O)OCC(C)C)OCO4 (stereo partly drawn) [Example 52, (2′R)-4′-isobutyl-4′-demethyl-homoharringtonine] | 0.024 µg/mL (≈ 0.0408 µM) | –
7 | COC1=C[C@@]23CCCN2CCc2cc4c(cc2[C@@H]3C1OC(=O)[C@@](O)(CCCC(C)(C)O)CC(=O)OCC(F)(F)F)OCO4 (stereo partly drawn) [Example 48, (2′R)-4′-(2,2,2-trifluoroethyl)-4′-demethyl-homoharringtonine] | 0.1 µg/mL (≈ 0.163 µM) | –
8 | COCCOC(=O)C[C@](O)(CCCC(C)(C)O)C(=O)OC1C(OC)=C[C@@]23CCCN2CCc2cc4c(cc2[C@H]13)OCO4 (stereo partly drawn) [Example 78, (2′R)-4′-(2-methoxyethoxy)-4′-demethyl-homoharringtonine] | 0.012 µg/mL (≈ 0.0203 µM) | –
9 | COC(=O)C[C@](O)(CCCC(C)(C)O)C(=O)O[C@@H]1C(OC)=C[C@]23CCCN2CCc2cc4c(cc2[C@H]13)OCO4 [HOMOHARRINGTONINE, homoharringtonine, reference compound] | – | IC50 (K562 cell line; Homo sapiens, K562 cell line, 72 h incubation, MTT, read-out: IC50): 0.014 µg/mL (≈ 0.0257 µM)
